Measurements from patent US8614195B2, “Glycoside derivatives and uses thereof” (Novartis AG, priority 2011, dated 2013).

Assays:
[1] = target: human SGLT1 (Homo sapiens (Human), UniProt P13866); assay: SGLT1 assay: analogous 14C-AMG uptake test with hSGLT1 expressed in CHO-K1 or HEK293 cells; type: cell-based; conditions: n = 1-4
Experimental: (§1) The SGLT-2 assay is carried out as follows: CHO-hSGLT2 cells are cultivated in Ham's F12 Medium (BioWhittaker) with 10% foetal calf serum and 250 μg/mL zeocin (Invitrogen), and HEK293-hSGLT2 cells are cultivated in DMEM medium with 10% foetal calf serum and 250 μg/mL zeocin (Invitrogen). The cells are detached from the culture flasks by washing twice with PBS and subsequently treating with trypsin/EDTA. After the addition of cell culture medium the cells are centrifuged, resuspended in culture medium and counted in a Casy cell counter. Then 40,000 cells per well are seeded into a white, 96-well plate coated with poly-D-lysine and incubated overnight at 37° C., 5% CO2. The cells are washed twice with 250 μl of assay buffer (Hanks Balanced Salt Solution, 137 mM NaCl, 5.4 mM KCl, 2.8 mM CaCl2, 1.2 mM MgSO4 and 10 mM HEPES (pH 7.4), 50 μg/mL of gentamycin). 250 μl of assay buffer and 5 μl of test compound are then added to each well and the plate is incubated for a further 15 minutes in the incubator. 5 μl of 10% DMSO are used as the negative control. The reaction is started by adding 5 μl of 14 C— AMG (0.05 μCi) to each well. After 2 hours' incubation at 37° C., 5% CO2, the cells are washed again with 250 μl of PBS […] and then lysed by the addition of 25 μl of 0.1 N NaOH (5 min. at 37° C.). 200 μl of MicroScint20 (Packard) are added to each well and incubation is continued for a further 20 min at 37° C. After this incubation the radioactivity of the ^14C-AMG absorbed is measured in a Topcount (Packard) using a ^14C scintillation program.
To determine the selectivity with respect to human SGLT1 an analogous test is set up in which the cDNA for hSGLTI (Genbank Ace. No. NM000343) instead of hSGLT2 cDNA is expressed in CHO-K1 or HEK293 cells.
The title compounds of the Examples were evaluated in the above described assays and the results of which are collated in Table 1.

[2] = target: human sodium glucose co-transporter 2 (SGLT2) (Homo sapiens (Human), UniProt P31639); assay: SGLT-2 assay: 14C-AMG uptake in CHO-hSGLT2 or HEK-hSGLT2 cells; type: cell-based; conditions: n = 1-4
Experimental: These cell lines transport ^14C-labelled alpha-methyl-glucopyranoside (^14C-AMG, Amersham) into the interior of the cell in sodium-dependent manner.
as §1

[3] = title compounds of the Examples (prodrugs)

Sequence of human SGLT1 (P13866 whole entry): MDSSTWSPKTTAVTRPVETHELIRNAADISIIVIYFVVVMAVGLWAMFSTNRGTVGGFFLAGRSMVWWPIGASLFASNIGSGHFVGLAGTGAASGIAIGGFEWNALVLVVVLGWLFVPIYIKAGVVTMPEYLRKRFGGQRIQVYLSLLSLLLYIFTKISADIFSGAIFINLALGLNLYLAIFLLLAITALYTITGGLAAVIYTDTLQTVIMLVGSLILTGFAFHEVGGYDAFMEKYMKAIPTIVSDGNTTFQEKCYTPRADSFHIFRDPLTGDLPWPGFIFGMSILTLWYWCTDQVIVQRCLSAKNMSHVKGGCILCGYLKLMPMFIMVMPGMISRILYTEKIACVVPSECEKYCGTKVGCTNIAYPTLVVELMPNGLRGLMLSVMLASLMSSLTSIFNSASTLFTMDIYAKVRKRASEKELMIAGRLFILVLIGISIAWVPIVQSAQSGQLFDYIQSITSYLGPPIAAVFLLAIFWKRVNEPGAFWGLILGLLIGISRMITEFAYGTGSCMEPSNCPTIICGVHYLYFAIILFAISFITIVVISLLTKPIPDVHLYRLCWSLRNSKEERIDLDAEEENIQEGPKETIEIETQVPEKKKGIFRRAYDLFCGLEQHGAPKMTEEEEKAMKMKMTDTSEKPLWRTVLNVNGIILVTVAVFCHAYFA
Sequence of human sodium glucose co-transporter 2 (SGLT2) (P31639 whole entry): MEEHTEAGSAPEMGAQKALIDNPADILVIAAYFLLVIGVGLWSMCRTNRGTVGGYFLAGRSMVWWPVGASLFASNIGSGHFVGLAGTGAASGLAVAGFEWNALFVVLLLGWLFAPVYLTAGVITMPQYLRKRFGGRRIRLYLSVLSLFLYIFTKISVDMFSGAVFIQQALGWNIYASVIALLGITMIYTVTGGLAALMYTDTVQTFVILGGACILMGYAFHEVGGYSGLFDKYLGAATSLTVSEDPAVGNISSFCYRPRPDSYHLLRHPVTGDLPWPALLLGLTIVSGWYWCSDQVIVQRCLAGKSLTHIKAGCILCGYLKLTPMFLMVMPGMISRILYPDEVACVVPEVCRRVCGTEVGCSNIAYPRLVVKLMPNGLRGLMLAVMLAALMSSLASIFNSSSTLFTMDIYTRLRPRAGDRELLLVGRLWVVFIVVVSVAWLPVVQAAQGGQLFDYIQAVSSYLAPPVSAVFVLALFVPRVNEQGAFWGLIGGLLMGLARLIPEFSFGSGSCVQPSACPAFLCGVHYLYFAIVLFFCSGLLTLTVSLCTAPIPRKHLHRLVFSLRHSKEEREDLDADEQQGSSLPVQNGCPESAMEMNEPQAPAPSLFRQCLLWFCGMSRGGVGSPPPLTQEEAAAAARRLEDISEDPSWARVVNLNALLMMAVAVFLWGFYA

Structure (SMILES)	IC50 [1] [nM]	IC50 ([2]; parent compound of the prodrugs) [nM]	IC50 [2, 3] [nM]	IC50 [1, 3] [nM]
CCc1ccc([C@@H]2O[C@H](CO)[C@@H](O)[C@H](O)[C@H]2O)cc1Cc1ccc2c(c1)OCCO2 [(2S,3R,4R,5S,6R)-2-[3-(2,3-Dihydro-benzo[1,4]dioxin-6-ylmethyl)-4-ethyl-phenyl]-6-hydroxymethyl-tetrahydro-pyran-3,4,5-triol]	22			
OC[C@H]1O[C@@H](c2ccc(C3CC3)c(Cc3ccc4c(c3)OCCO4)c2)[C@H](O)[C@@H](O)[C@@H]1O [(2S,3R,4R,5S,6R)-2-[4-Cyclopropyl-3-(2,3-dihydro-benzo[1,4]dioxin-6-ylmethyl)-phenyl]-6-hydroxymethyl-tetrahydro-pyran-3,4,5-triol]	9	2.2		
CCc1ccc([C@@H]2O[C@H](COC(=O)[C@H](N)C(C)C)[C@@H](O)[C@H](O)[C@H]2O)cc1Cc1ccc2c(c1)OCCO2 [Example 1, (R)-2-Amino-3-methyl-butyric acid (2R,3S,4R,5R,6S)-6-[3-(2,3-dihydro-benzo[1,4]dioxin-6-ylmethyl)-4-ethyl-phenyl]-3,4,5-trihydroxy-tetrahydro-pyran-2-ylmethyl ester]			22.5	409
COC(=O)OC[C@H]1O[C@@H](c2ccc(C3CC3)c(Cc3ccc4c(c3)OCCO4)c2)[C@H](O)[C@@H](O)[C@@H]1O [Example 2, carbonic acid (2R,3S,4R,5R,6S)-6-[4-cyclopropyl-3-(2,3-dihydro-benzo[1,4]dioxin-6-ylmethyl)-phenyl]-3,4,5-trihydroxy-tetrahydro-pyran-2-ylmethyl ester methyl ester]			17.5	35
CCOC(=O)OC[C@H]1O[C@@H](c2ccc(C3CC3)c(Cc3ccc4c(c3)OCCO4)c2)[C@H](O)[C@@H](O)[C@@H]1O [Example 2a, Carbonic acid (2R,3S,4R,5R,6S)-6-[4-cyclopropyl-3-(2,3-dihydro-benzo[1,4]dioxin-6-ylmethyl)-phenyl]-3,4,5-trihydroxy-tetrahydro-pyran-2-ylmethyl ester ethyl ester]			97	308
CC(C)COC(=O)OC[C@H]1O[C@@H](c2ccc(C3CC3)c(Cc3ccc4c(c3)OCCO4)c2)[C@H](O)[C@@H](O)[C@@H]1O [Example 2b, Carbonic acid (2R,3S,4R,5R,6S)-6-[4-cyclopropyl-3-(2,3-dihydro-benzo[1,4]dioxin-6-ylmethyl)-phenyl]-3,4,5-trihydroxy-tetrahydro-pyran-2-ylmethyl ester isobutyl ester]			186	338
CCOC(=O)OC[C@H]1O[C@@H](c2ccc(CC)c(Cc3ccc4c(c3)OCCO4)c2)[C@H](O)[C@@H](O)[C@@H]1O [Example 2c, Carbonic acid (2R,3S,4R,5R,6S)-6-[3-(2,3-dihydro-benzo[1,4]dioxin-6-ylmethyl)-4-ethyl-phenyl]-3,4,5-trihydroxy-tetrahydro-pyran-2-ylmethyl ester ethyl ester]			27	197
CCc1ccc([C@@H]2O[C@H](COC(=O)OCC3CC4CCC3C4)[C@@H](O)[C@H](O)[C@H]2O)cc1Cc1ccc2c(c1)OCCO2 (stereo partly drawn) [Example 2f, Carbonic acid bicyclo[2.2.1]hept-2-ylmethyl ester (2R,3S,4R,5R,6S)-6-[3-(2,3-dihydro-benzo[1,4]dioxin-6-ylmethyl)-4-ethyl-phenyl]-3,4,5-trihydroxy-tetrahydro-pyran-2-ylmethyl ester]			143	3440
CCc1ccc([C@@H]2O[C@H](COC(=O)O[C@@H](C)c3ccccc3)[C@@H](O)[C@H](O)[C@H]2O)cc1Cc1ccc2c(c1)OCCO2 [Example 2g, Carbonic acid (2R,3S,4R,5R,6S)-6-[3-(2,3-dihydro-benzo[1,4]dioxin-6-ylmethyl)-4-ethyl-phenyl]-3,4,5-trihydroxy-tetrahydro-pyran-2-ylmethyl ester (S)-1-phenyl-ethyl ester]			567	1000
CCOP(=O)(OCC)OC[C@H]1O[C@@H](c2ccc(CC)c(Cc3ccc4c(c3)OCCO4)c2)[C@H](O)[C@@H](O)[C@@H]1O [Example 3, phosphoric acid (2R,3S,4R,5R,6S)-6-[3-(2,3-dihydro-benzo[1,4]dioxin-6-ylmethyl)-4-ethyl-phenyl]-3,4,5-trihydroxy-tetrahydro-pyran-2-ylmethyl ester diethyl ester]			> 1000	814
CCOP(=O)(OCC)OC[C@H]1O[C@@H](c2ccc(C3CC3)c(Cc3ccc4c(c3)OCCO4)c2)[C@H](O)[C@@H](O)[C@@H]1O [Example 3a, Phosphoric acid (2R,3S,4R,5R,6S)-6-[4-cyclopropyl-3-(2,3-dihydro-benzo[1,4]dioxin-6-ylmethyl)-phenyl]-3,4,5-trihydroxy-tetrahydro-pyran-2-yl methyl ester diethyl ester]			> 1000	5650
